Test results: PubChem BioAssay AID2765 (Broad Institute, 2010)
Activity calls are given as the source filed them.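 Rule for the calls: active = half-maximal concentration for the rise in caspase light signal at or below ten times the top tested dose; inconclusive = flat fit between 30% and 70% activity, or unreliable curve fit; inactive = the rest.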

Tested on: MEF A1-2A-BIM cells, caspase 3/7 luminescence, 3 h
Assay: caspase activation in A1-2A-BIM MEF cells, dose response, A1 inhibitor project, cell-based, luminescence, retest (AID 2765)

## Cc1cc(=O)oc2c(C)c(OCC(=O)N3CCN(C(=O)C4COc5ccccc5O4)CC3)ccc12 (stereo not given)
  EC50: > 35 µM (inactive)

## S=C(NCCc1ccccc1)NC1CCCCCC1
  EC50: > 35 µM (inactive)

## C[C@@]12C(=O)OC(=O)[C@]1(C)C1CCC2O1
  EC50: > 35 µM (inactive)

## O=C(O)CCN1CCc2ccccc2C1c1ccncc1 (stereo not given)
  EC50: > 35 µM (inactive)

## CCCCCCCC/C=C\CCCCCCCC(=O)O
  EC50: > 35 µM (inactive)

## COC(=O)c1ccc(Cl)cc1NC(=O)/C=C/c1ccc(C)o1
  EC50: > 35 µM (inactive)

## CC(C)(C)c1ccc(C(=O)Nc2ccc(O)c3c(=O)cc(-c4cccc(Cl)c4)oc23)cc1
  EC50: > 35 µM (inactive)

## CCCNC(=O)C(Cc1ccccc1F)NC(=O)c1ccccn1 (stereo not given)
  EC50: > 35 µM (inactive)

## O=C(COc1ccccc1[N+](=O)[O-])Nc1ccc(NC(=O)c2cc3ccccc3o2)cc1
  EC50: 27.4 µM

## CCCCNC(=O)c1ccc2nc(-c3ccco3)c(-c3ccco3)nc2c1
  EC50: > 35 µM (inactive)

## COc1cc2c3c([nH]c2cc1F)C(=O)NCC3
  EC50: > 35 µM (inactive)

## Cc1ccccc1S(=O)(=O)N(CC(O)CN1CCCCC1)c1ccccc1 (stereo not given)
  EC50: > 35 µM (inactive)

## CC1Cc2cc(/C(O)=C3/C(=O)C(=O)N(Cc4cccnc4)C3c3cccc(O)c3)ccc2O1 (stereo not given)
  EC50: > 35 µM (inactive)

## COc1cc(Cl)c(C)cc1NC(=O)CSc1cc(Cl)ccc1Cl
  EC50: > 35 µM (inactive)

## CCCc1cc(=O)oc2c(C)c(OCC(=O)Nc3ccc(CN4CCOCC4)cc3)ccc12
  EC50: > 35 µM (inactive)

## Clc1nc(NCc2ccco2)nc(N2CCCCC2)n1
  EC50: > 35 µM (inactive)

## COc1ccc2c(c1)[nH]c1c(=O)n(/N=C/C3C(C)C=C(C)CC3C)c(=O)[nH]c12 (stereo not given)
  EC50: > 35 µM (inactive)

## S=C(Nc1ccccc1)N1N=C(c2cccs2)CC1c1cccs1 (stereo not given)
  EC50: > 35 µM (inactive)

## Cc1ccc2[nH]c3c(c2c1)CCCC3NC(=O)CCl (stereo not given)
  EC50: > 35 µM (inactive)

## Cc1cc(C)cc(Cn2ncc(Cl)c(Cl)c2=O)c1
  EC50: > 35 µM (inactive)

## Cc1cc(C)cc(NC(=O)/C(C#N)=C/c2cn(CC(=O)NCc3ccco3)c3ccccc23)c1
  EC50: 4.65 µM

## COC(=O)C(Cc1ccccc1)OS(N)(=O)=O (stereo not given)
  EC50: > 35 µM (inactive)

## CCOC(=O)C(C(=O)OCC)c1cc(Br)c2noc3c2c1C(=O)c1ccccc1-3
  EC50: > 35 µM (inactive)

## Cc1ccc(C)c(NC(=S)NC(NC(=O)Cc2cccc3ccccc23)C(Cl)(Cl)Cl)c1 (stereo not given)
  EC50: 5.84 µM

## O=C(c1cc(-c2ccccn2)nc2ccc(Cl)cc12)N1CCN(CCc2ccccc2)CC1
  EC50: > 35 µM (inactive)

## CC(c1ccccc1)n1c(CCCO)nc2ccccc21 (stereo not given)
  EC50: > 35 µM (inactive)

## O=S1(=O)C=C(Sc2nc3cc(Cl)ccc3o2)c2ccccc21
  EC50: > 35 µM (inactive)

## CC1=C/C(=N\OS(=O)(=O)c2ccccc2)C(C)=CC1=O
  EC50: > 35 µM (inactive)

## CCCCc1ccc(S(=O)(=O)NC2CCS(=O)(=O)C2)cc1 (stereo not given)
  EC50: > 35 µM (inactive)

## CN1C(C(=O)Nc2cccc(O)c2)=CC(c2ccco2)=NS1(=O)=O
  EC50: > 35 µM (inactive)

## COc1ccc(Nc2cc3n(c(=O)n2)CCc2cc(OC)c(OC)cc2-3)c(C)c1
  EC50: > 35 µM (inactive)

## CCOc1nc2c(c(-c3cccs3)c1C#N)Cc1ccccc1-2
  EC50: > 35 µM (inactive)

## CC(=O)c1cc(C#N)c(SCC(=O)Nc2nccs2)nc1C
  EC50: > 35 µM (inactive)

## Cc1cc(C2C(C#N)=C(N)SC(N)=C2C#N)c(C)s1
  EC50: > 35 µM (inactive)

## COc1cccc(-c2cc(=O)c3cc(NC(=O)c4ccc(N(C)C)cc4)ccc3[nH]2)c1
  EC50: > 35 µM (inactive)

## O=S1(=O)C=C(Sc2nc3ccccc3s2)c2ccccc21
  EC50: > 35 µM (inactive)

## CN(C(=O)c1ccc(NC(=O)C2CCCN(C(=O)OC(C)(C)C)C2)cc1)C1CC1 (stereo not given)
  EC50: > 35 µM (inactive)

## CCN(C(=O)CSc1nc2ccccc2n1CC)C1CCS(=O)(=O)C1 (stereo not given)
  EC50: > 35 µM (inactive)

## COc1ccc(/C=C/C(=O)NC(=S)NCCc2ccc(OC)c(OC)c2)cc1
  EC50: > 35 µM (inactive)

## Cc1ccsc1CNC1CCCCC1
  EC50: > 35 µM (inactive)
